Drawing on ChEMBL document CHEMBL1136447, “Biological investigation and structure-activity relationship studies on azadirone from Azadirachta indica A. Juss” (2003), this text covers GI50, Growth and Score for 7 molecules.

For assay [1], the system named is A498. Description: In vitro cytotoxic activity against renal (A498) cell line. The assay is classed as functional. As to conditions: Homo sapiens.
Assay [2] concerns A498. Description: In vitro cytotoxic activity against renal (A498) cell line at a concentration of 10e-5 M. The assay is classed as functional, Homo sapiens.
For assay [3], the system named is DU-145. Nature of the assay: In vitro cytotoxic activity against prostate (DU145) cell line. As to conditions: Homo sapiens. The assay is classed as functional.
The subject of assay [4] is DU-145. Description: In vitro cytotoxic activity against prostate (DU145) cell line at a concentration of 10e-5 M. It is filed as functional, Homo sapiens.
Assay [5] deals with M14. Nature of the assay: In vitro cytotoxic activity against Melanoma (M14) cell line at a concentration of 10e-5 M. It is filed as functional, Homo sapiens.
Assay [6] concerns MCF7. Description: In vitro cytotoxic activity against breast (MCF-7/ADR) cell line. The conditions noted are these: Homo sapiens. The assay is classed as functional.
Assay [7] deals with MCF7. Description: In vitro cytotoxic activity against breast (MCF-7/ADR) cell line at a concentration of 10e-5 M. It is filed as functional, Homo sapiens.
Assay [8] concerns M14. Description: In vitro cytotoxic activity against Melanoma (M14) cell line. The assay is classed as functional. The conditions noted are these: Homo sapiens.
Assay [9] has as its system SK-OV-3. Nature of the assay: In vitro cytotoxic activity against Ovarian (SK-OV3) cell line. The assay is classed as functional. The conditions noted are these: Homo sapiens.
The subject of assay [10] is SW-620. Description: In vitro cytotoxic activity against colon (SW620) cell line. It is filed as functional. The conditions noted are these: Homo sapiens.
For assay [11], the system named is SW-620. Nature of the assay: In vitro cytotoxic activity against colon (SW620) cell line at a concentration of 10e-5 M. The assay is classed as functional, Homo sapiens.
In assay [12] the test system is U-251. Description: In vitro cytotoxic activity against CNS(U251) cell line. The conditions noted are these: Homo sapiens. It is filed as functional.
Assay [13] deals with U-251. Nature of the assay: In vitro cytotoxic activity against CNS(U251) cell line at a concentration of 10e-5 M. It is filed as functional, Homo sapiens.
Assay [14] concerns SK-OV-3. Nature of the assay: In vitro cytotoxic activity against Ovarian (SK-OV3) cell line at a concentration of 10e-5 M. It is filed as functional, Homo sapiens.
In assay [15] the test system is NCI-H522. Nature of the assay: In vitro cytotoxic activity against lung (H522) cell line. As to conditions: Homo sapiens.
Assay [16] concerns NCI-H522. Description: In vitro cytotoxic activity against lung (H522) cell line at a concentration of 10e-5 M.
Assay [17] has as its system NCI-H522. Nature of the assay: In vitro cytotoxicity against H522 (human adenocarcinoma) cell line at a concentration of 10e-5 M.
Assay [18] concerns NCI-H522. Nature of the assay: In vitro cytotoxic activity against lung (H522) cell line at a concentration of 10e-5 M. The assay is classed as functional, Homo sapiens.
Assay [19] has as its system Mus musculus. Nature of the assay: In vivo potential in Swiss Albino Mice using modified hollow fiber assay at the dose of 150 mg/kg as total score. The assay is classed as functional.
The test system of assay [20] is Mus musculus. Nature of the assay: In vivo potential in Swiss Albino Mice using modified hollow fiber assay at the dose of 150 mg/kg by ip administration. It is filed as functional. As to conditions: route intraperitoneal.
In assay [21] the test system is Mus musculus. Description: In vivo potential in Swiss Albino Mice using modified hollow fiber assay at the dose of 150 mg/kg by sc administration. The assay is classed as functional. The conditions noted are these: route subcutaneous.
For assay [22], the system named is Mus musculus. Description: In vivo potential in Swiss Albino Mice using modified hollow fiber assay at the dose of 75 mg/kg as total score. The assay is classed as functional.
Assay [23] has as its system Mus musculus. Description: In vivo potential in Swiss Albino Mice using modified hollow fiber assay at the dose of 75 mg/kg by ip administration. It is filed as functional. As to conditions: route intraperitoneal.
Assay [24] relates to Mus musculus. Nature of the assay: In vivo potential in Swiss Albino Mice using modified hollow fiber assay at the dose of 75 mg/kg by sc administration. The assay is classed as functional. The conditions noted are these: route subcutaneous.
The subject of assay [25] is Mus musculus. Description: In vivo potential in Swiss Albino Mice using modified hollow fiber assay at the dose of 100 mg/kg as total score. It is filed as functional.
Assay [26] has as its system Mus musculus. Description: In vivo potential in Swiss Albino Mice using modified hollow fiber assay at the dose of 100 mg/kg by ip administration. It is filed as functional. As to conditions: route intraperitoneal.
Assay [27] concerns Mus musculus. Description: In vivo potential in Swiss Albino Mice using modified hollow fiber assay at the dose of 100 mg/kg by sc administration. As to conditions: route subcutaneous. The assay is classed as functional.
Assay [28] deals with Mus musculus. Nature of the assay: In vivo potential in Swiss Albino Mice using modified hollow fiber assay at the dose of 50 mg/kg as total score. It is filed as functional.
Assay [29] relates to Mus musculus. Description: In vivo potential in Swiss Albino Mice using modified hollow fiber assay at the dose of 50 mg/kg by ip administration. It is filed as functional. The conditions noted are these: route intraperitoneal.
Assay [30] concerns Mus musculus. Nature of the assay: In vivo potential in Swiss Albino Mice using modified hollow fiber assay at the dose of 50 mg/kg by sc administration. It is filed as functional. The conditions noted are these: route subcutaneous.

Consider `CC(C)(C)OC(=O)NCC(=O)O[C@@H]1CC2C(C)(C)C(=O)C=C[C@]2(C)C2CC[C@]3(C)C(=CC[C@H]3c3ccoc3)[C@@]21C` (stereo not given in full), for which the GI50 – broadly, the concentration giving 50% growth inhibition – came to 12 µM in the assay with A498 [1]; 20 µM with DU-145 [3]; 60 µM in the assay on MCF7 [6]; 20 µM in the assay with M14 [8]; 65 µM in the assay with SK-OV-3 [9]; 20 µM in the assay on SW-620 [10]. Also, the concentration for 50% growth inhibition (GI50) with U-251 [12] came out at 50 µM; with NCI-H522 [15], 15 µM. Also, the Growth worked out at 33% in the assay with A498 [2]; 63% with DU-145 [4]; 58% in the assay with M14 [5]; 62% with MCF7 [7]; 67% with SW-620 [11]; 53% in the assay on U-251 [13]. Further, the Growth with SK-OV-3 [14] was 48%; in the assay on NCI-H522 [16] it was 53%.
For the molecule `CCN(CC)CCO/N=C1\C=C[C@@]2(C)C(C[C@@H](OC(C)=O)[C@@]3(C)C4=CC[C@@H](c5ccoc5)[C@]4(C)CCC23)C1(C)C` (stereo not given in full), the GI50 with A498 [1] was 8 µM; in the assay on DU-145 [3] it was 7 µM; with MCF7 [6] it was 6 µM; in the assay with M14 [8] it was 4 µM; in the assay on SK-OV-3 [9], 3 µM; in the assay on SW-620 [10], 4 µM. Moreover, the results for the 50% growth inhibitory concentration (GI50) in the assay with U-251 [12] and in the assay on NCI-H522 [15] were 4 µM and 3 µM, respectively. Also, the Growth in the assay with A498 [2] was determined as 7%; with DU-145 [4] it was 46%; in the assay on M14 [5] it was 35%; with MCF7 [7], 28%; in the assay on SW-620 [11], 23%; in the assay with U-251 [13] it was 5%. Besides, the Growth is reported as 7% in the assay with SK-OV-3 [14] and 26% with NCI-H522 [17].
Turning to `CC1(C)C(=O)C=C[C@@]2(C)C1CC(=O)[C@@]1(C)C3=CC[C@@H](c4ccoc4)[C@]3(C)CCC12` (stereo not given in full), the GI50 in the assay with A498 [1] worked out at 4 µM; in the assay on DU-145 [3], 6 µM; with MCF7 [6] it was 3 µM; with M14 [8], 0.6 µM; in the assay with SK-OV-3 [9] it was 7.5 µM; in the assay on SW-620 [10], 3 µM. Moreover, the figures for the concentration for 50% growth inhibition (GI50) in the assay on U-251 [12] and with NCI-H522 [15] were 6 µM and 25 µM, respectively. The Growth in the assay on A498 [2] is listed as 9%; in the assay with DU-145 [4], 7%; with M14 [5] it was 7%; with MCF7 [7], 30%; with SW-620 [11] it was 3%; with NCI-H522 [18], 43%. Also, the Growth in the assay with U-251 [13] is given as 27%; in the assay on SK-OV-3 [14] it was 43%.
As to `CC(=O)O[C@@H]1CC2C(C)(C)C(=O)C=C[C@]2(C)C2CC[C@]3(C)C(=CC[C@H]3c3ccoc3)[C@@]21C` (stereo not given in full), the 50% growth inhibitory concentration (GI50) with A498 [1] was found to be 2 µM; with DU-145 [3], 0.05 µM; with MCF7 [6] it was 0.06 µM; in the assay on M14 [8], 0.08 µM; with SK-OV-3 [9] it was 5 µM; in the assay with SW-620 [10] it was 7 µM. Besides, the GI50 in the assay on U-251 [12] was 2.5 µM; with NCI-H522 [15], 6 µM. In addition, the Growth with A498 [2] is given as 23%; with DU-145 [4], -6%; in the assay with M14 [5], -6%; with MCF7 [7] it was -18%; in the assay with SW-620 [11], 29%; in the assay with U-251 [13] it was -4%. In addition, the Growth turned out to be 30% in the assay with SK-OV-3 [14] and 29% in the assay with NCI-H522 [16]. The Score in the assay on Mus musculus [19] is listed as 48; in the assay on Mus musculus [20] it was 24; with Mus musculus [21] it was 24; with Mus musculus [22] it was 36; in the assay with Mus musculus [23], 14; in the assay with Mus musculus [24], 12.
Take `CC(=O)O[C@@H]1CC2C(C)(C)/C(=N/OCCN3CCCC3)C=C[C@]2(C)C2CC[C@]3(C)C(=CC[C@H]3c3ccoc3)[C@@]21C` (stereo not given in full): the GI50 in the assay with A498 [1] was 4 µM; in the assay on DU-145 [3], 6 µM; in the assay with MCF7 [6], 3 µM; in the assay on M14 [8], 5 µM; in the assay on SK-OV-3 [9], 4 µM; in the assay with SW-620 [10], 3 µM. Also, the GI50 in the assay with U-251 [12] and in the assay with NCI-H522 [15] was 4 µM throughout. For the same molecule, the Growth with A498 [2] was -16%; in the assay with DU-145 [4], 32%; in the assay on M14 [5] it was 26%; in the assay on MCF7 [7], 22%; in the assay with SW-620 [11] it was -51%; in the assay on U-251 [13], -24%. For the same molecule, the results for the Growth in the assay with SK-OV-3 [14] and with NCI-H522 [17] were -35% and -13.9%, respectively. Moreover, the Score in the assay on Mus musculus [25] came to 46; with Mus musculus [26], 24; with Mus musculus [27], 22; in the assay on Mus musculus [28], 22; with Mus musculus [29], 14; with Mus musculus [30], 8.
Take `CC1(C)C(=O)C=C[C@@]2(C)C1C[C@@H](OC(=O)CCl)[C@@]1(C)C3=CC[C@@H](c4ccoc4)[C@]3(C)CCC21` (stereo not given in full): the GI50 in the assay on A498 [1] is 4 µM; in the assay with DU-145 [3], 5 µM; in the assay with MCF7 [6], 3 µM; in the assay with M14 [8], 5 µM; with SK-OV-3 [9], 5 µM; with SW-620 [10] it was 5 µM. For the same molecule, the GI50 came out at 6 µM with U-251 [12] and 4 µM in the assay on NCI-H522 [15]. Moreover, the Growth in the assay with A498 [2] is listed as -8%; in the assay with DU-145 [4] it was 13%; in the assay on M14 [5], -3%; with MCF7 [7] it was -2%; in the assay with SW-620 [11], 12%; in the assay with U-251 [13], 22%. Also, the Growth is recorded as 14% in the assay with SK-OV-3 [14] and 5% in the assay with NCI-H522 [16].
With `CC(=O)O[C@H]1C[C@@H](OC(C)=O)C(C)(C)C2C[C@@H](OC(C)=O)[C@@]3(C)C4=CC[C@@H](c5ccoc5)[C@]4(C)CCC3[C@]21C` (stereo not given in full), the GI50 is 15 µM with A498 [1]; 4 µM in the assay with DU-145 [3]; 4 µM with MCF7 [6]; 5 µM with M14 [8]; 9 µM in the assay on SK-OV-3 [9]; 3 µM in the assay on SW-620 [10]. For the same molecule, the figures for the 50% growth inhibitory concentration (GI50) in the assay with U-251 [12] and in the assay with NCI-H522 [15] were 30 µM and 40 µM, respectively. The Growth in the assay on A498 [2] is on record as -5%; in the assay on DU-145 [4], -19%; in the assay on M14 [5], -22%; in the assay with MCF7 [7], 38%; in the assay with SW-620 [11] it was -60%; with U-251 [13], -24%. Further, the Growth in the assay on SK-OV-3 [14] was 42%; with NCI-H522 [17], 8%. Besides, the Score is recorded as 48 in the assay with Mus musculus [19]; 24 with Mus musculus [20]; 24 with Mus musculus [21]; 18 with Mus musculus [22]; 12 in the assay with Mus musculus [23]; 6 in the assay with Mus musculus [24].
